Source: US7291641B2, “Derivatives of heterocycles with 5 members, their preparation and their use as medicaments” (Societe de Conseils de Recherches et d'Applications …, priority 1999, dated 2007)

Row | Structure (SMILES) | melting point
1 | CC(C)[C@@H](NC1CCCCC1)c1nc(-c2ccc(F)cc2)c[nH]1 [Example 276, N-{(1R)-1-[4-(4-fluorophenyl)-1H-imidazol-2-yl]-2-methylpropyl}-cyclohexanamine] | 224 to 226 °C
2 | O=C(NCCc1nc(-c2ccc(-c3ccccc3)cc2)c[nH]1)OCC1CCCCC1 [Example 280, cyclohexylmethyl 2-(4-[1,1′-biphenyl]-4-yl-1H-imidazol-2-yl)ethylcarbamate] | 132 to 134 °C
3 | CCCCOC(=O)NCCc1nc(-c2ccc(-c3ccc(Br)cc3)cc2)c[nH]1 [Example 281, 4-bromo-4′-(2-{2-[(butoxycarbonyl)amino]ethyl}-1H-imidazol-4-yl)-1,1′-biphenyl] | 166 °C
4 | Fc1ccc(-c2c[nH]c([C@@H](NC3CCCCC3)C3CCCCC3)n2)cc1 [Example 283, N-{(S)-cyclohexyl[4-(4-fluorophenyl)-1H-imidazol-2-yl]methyl}-cyclohexanamine] | 260 to 262 °C
5 | FC(F)(F)c1cc(-c2c[nH]c([C@@H](NC3CCCCC3)C3CCCCC3)n2)cc(C(F)(F)F)c1 [Example 284, N-[(S)-{4-[3,5-bis(trifluoromethyl)phenyl]-1H-imidazol-2-yl}(cyclohexyl)methyl]cyclohexanamine] | 180 to 182 °C
6 | O=C(NCCc1nc(-c2ccc(-c3ccccc3)cc2)c[nH]1)OCC1CCC1 [Example 285, cyclobutylmethyl 2-(4-[1,1′-biphenyl]-4-yl-1H-imidazol-2-yl)ethylcarbamate] | 144 to 145 °C
7 | O=C(NCCc1nc(-c2ccc(F)cc2)c[nH]1)OCC1CCC1 [Example 286, cyclobutylmethyl 2-[4-(4-fluorophenyl)-1H-imidazol-2-yl]ethylcarbamate] | 149 to 150 °C
8 | Fc1ccc(-c2c[nH]c([C@@H](NC3CCCCC3)C3CCCCC3)n2)cc1F [Example 287, N-{(S)-cyclohexyl[4-(3,4-difluorophenyl)-1H-imidazol-2-yl]methyl}cyclohexanamine] | 182.3 °C
9 | COCCOC(=O)NCCc1nc(-c2ccc(-c3ccccc3)cc2)c[nH]1 [Example 288, 4-[2-(2-{[(2-methoxyethoxy)carbonyl]amino}ethyl)-1H-imidazol-4-yl]-1,1′-biphenyl] | 123.3 °C
10 | Brc1cccc(-c2c[nH]c([C@@H](NCC3CCCCC3)C3CCCCC3)n2)c1 [Example 289, (S)-1-[4-(3-bromophenyl)-1H-imidazol-2-yl]-1-cyclohexyl-N-(cyclohexylmethyl)methanamine] | 134.3 °C
11 | Fc1ccc(-c2c[nH]c([C@@H](NCC3CCCCC3)C3CCCCC3)n2)cc1 [Example 293, (S)-1-cyclohexyl-N-(cyclohexylmethyl)-1-[4-(4-fluorophenyl)-1H-imidazol-2-yl]methanamine] | 184.8 °C
12 | CCCCOC(=O)NCCc1nc(-c2ccc(C(C)(C)C)cc2)c[nH]1 [Example 294, butyl 2-[4-(4-tert-butylphenyl)-1H-imidazol-2-yl]ethylcarbamate] | 106 to 108 °C
13 | CCCCOC(=O)NCCc1nc(-c2ccc(Br)cc2)c[nH]1 [Example 299, butyl 2-[4-(4-bromophenyl)-1H-imidazol-2-yl]ethylcarbamate] | 99 to 100 °C
14 | CCCCOC(=O)NCCc1nc(-c2ccc(C(F)(F)F)cc2)c[nH]1 [Example 300, butyl 2-{4-[4-(trifluoromethyl)phenyl]-1H-imidazol-2-yl}ethylcarbamate] | 104 to 105 °C
15 | Fc1ccc(-c2c[nH]c([C@@H](NC3CCCCCC3)C3CCCCC3)n2)cc1 [Example 301, N-{(S)-cyclohexyl[4-(4-fluorophenyl)-1H-imidazol-2-yl]methyl}cycloheptanamine] | 140 to 142 °C
16 | CC(C)(C)c1ccc(-c2c[nH]c(CCNC(=O)OCC3CCCCC3)n2)cc1 [Example 302, cyclohexylmethyl 2-[4-(4-tert-butylphenyl)-1H-imidazol-2-yl]ethylcarbamate] | 104 to 106 °C
17 | O=C(NCCc1nc(-c2ccc(-c3ccc(Br)cc3)cc2)c[nH]1)OCC1CCCCC1 [Example 303, cyclohexylmethyl 2-[4-(4′-bromo-1.1′-biphenyl-4-yl)-1H-imidazol-2-yl]ethylcarbamate] | 130 to 132 °C
18 | FC(F)(F)c1cccc(-c2c[nH]c([C@@H](NC3CCCCC3)C3CCCCC3)n2)c1 [Example 304, N-((S)-cyclohexyl{4-[3-(trifluoromethyl)phenyl]-1H-imidazol-2-yl}methyl)cyclohexanamine] | 186 to 188 °C
19 | FC(F)(F)c1cccc(-c2c[nH]c([C@@H](NCC3CCCCC3)C3CCCCC3)n2)c1 [Example 305, (S)-1-cyclohexyl-N-(cyclohexylmethyl)-1-{4-[3-(trifluoromethyl)-phenyl]-1H-imidazol-2-yl}methanamine] | 143.9 °C
20 | Fc1ccc(-c2c[nH]c([C@@H](CC3CCCCC3)NC3CCCCC3)n2)cc1 [Example 309, N-{(1R)-2-cyclohexyl-1-[4-(4-fluorophenyl)-1H-imidazol-2-yl]ethyl}cyclohexanamine] | 217 to 218 °C
21 | CCCCOC(=O)NCCc1nc(-c2ccc(N3CCCC3)cc2)c[nH]1 [Example 313, butyl 2-[4-(4-pyrrolidin-1-ylphenyl)-1H-imidazol-2-yl]ethylcarbamate] | 125 °C
22 | O=C(NCCc1nc(-c2ccc(N3CCCC3)cc2)c[nH]1)OCC1CCCCC1 [Example 326, cyclohexylmethyl 2-[4-(4-pyrrolidin-1-ylphenyl)-1H-imidazol-2-yl]ethylcarbamate] | 128.5 °C
23 | CCCCOC(=O)NCCc1nc(-c2cc(C(C)(C)C)c(O)c(C(C)(C)C)c2)c[nH]1 [Example 330, butyl 2-[4-(3,5-ditert-butyl-4-hydroxyphenyl)-1H-imidazol-2-yl]ethylcarbamate] | 180.9 °C
24 | CC(C)COC(=O)NCCc1nc(-c2ccc(-c3ccc(Br)cc3)cc2)c[nH]1 [Example 338, isobutyl 2-[4-(4′-bromo-1,1′-biphenyl-4-yl)-1H-imidazol-2-yl]ethylcarbamate] | 158.7 °C
25 | CC(C)COC(=O)NCCc1nc(-c2ccc(C(C)(C)C)cc2)c[nH]1 [Example 339, isobutyl 2-[4-(4-tert-butylphenyl)-1H-imidazol-2-yl]ethylcarbamate] | 110.6 °C
26 | CC(C)(C)c1ccc(-c2c[nH]c(CCNC(=O)OCC3CCC3)n2)cc1 [Example 340, cyclobutylmethyl 2-[4-(4-tert-butylphenyl)-1H-imidazol-2-yl]ethylcarbamate] | 103 °C
27 | CC(C)(C)c1ccc(-c2c[nH]c(CCNC(=O)OC3CCCCC3)n2)cc1 [Example 342, cyclohexyl 2-[4-(4-tert-butylphenyl)-1H-imidazol-2-yl]ethylcarbamate] | 127 to 130 °C
28 | O=C(NCCc1nc(-c2ccc(-c3ccc(Br)cc3)cc2)c[nH]1)OCCCC(F)(F)F [Example 344, 4,4,4-trifluorobutyl 2-[4-(4′-bromo-1,1′-biphenyl-4-yl)-1H-imidazol-2-yl]ethylcarbamate] | 176.5 °C
29 | O=C(NCCc1nc(-c2ccc(-c3ccccc3)cc2)c[nH]1)OCCCC(F)(F)F [Example 345, 4,4,4-trifluorobutyl 2-[4-(1,1′-biphenyl-4-yl)-1H-imidazol-2-yl]ethylcarbamate] | 157.3 °C
